Several values for one entry are separate records, joined by “and”; a condition that tells them apart may be missing. Equal values may be shown once. Toxic doses and inconclusive results are not listed.
Tested on: P388 leukemia ip, CD2F1 mice, survival T/C
Assay: NCI In Vivo Anticancer Drug Screen. Data for tumor model P388 Leukemia (intraperitoneal) in CD2F1 (CDF1) mice
Conditions: endpoint: median survival time, higher = longer survival
Summary of the method: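 Mice carrying the transplanted tumor received test compound or vehicle. Survival was recorded in each group, and the value is the treated-group measurement divided by that of the vehicle-treated control group.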

[1] = dose: 50.0 mg/kg/injection, schedule: Q01DX005 (ip), vehicle: saline
[2] = dose: 100.0 mg/kg/injection, schedule: Q01DX005 (ip), vehicle: saline
[3] = dose: 12.5 mg/kg/injection, schedule: Q01DX005 (ip), vehicle: saline with Tween-80
[4] = dose: 25.0 mg/kg/injection, schedule: Q01DX005 (ip), vehicle: saline with Tween-80
[5] = dose: 50.0 mg/kg/injection, schedule: Q01DX005 (ip), vehicle: saline with Tween-80

In the case of `CC1(C)NC(=O)C2(CC(O)C(O)C(OC(=O)c3ccccc3)C2)O1` (stereo not drawn), the T/C (dose: 25.0 mg/kg/injection, schedule: Q01DX005 (ip), vehicle: saline) is reported as 102 % of control, the T/C [1] is reported as 94 % of control and the T/C [2] is reported as 99 % of control.

For `CCCCCCCCCCCCCCCC(=O)N(CCC#N)CCC#N`, the T/C (dose: 100.0 mg/kg/injection, schedule: Q01DX009 (ip), vehicle: saline with Tween-80) was 185 % of control and the T/C (dose: 200.0 mg/kg/injection, schedule: Q01DX009 (ip), vehicle: saline with Tween-80) was 100 % of control.

In the case of `COc1cc(NCCCCCNC(C)C)c2ncccc2c1`, the T/C [3] is reported as 103 % of control, the T/C [4] is reported as 113 % of control and the T/C [5] is reported as 100 % of control.

In the case of `CCN(CC)CCNc1ccc(C)c2sc3cc(O)ccc3c(=O)c12`, the T/C [1] is reported as 107 % of control, the T/C [2] is reported as 108 % of control and the T/C (dose: 200.0 mg/kg/injection, schedule: Q01DX005 (ip), vehicle: saline) is reported as 106 % of control.

With `Cc1ccccc1/C(=C/c1ccc([N+](=O)[O-])cc1)C(=O)O` the T/C (dose: 60.0 mg/kg/injection, schedule: Q01DX005 (ip), vehicle: Klucel (hydroxypropylcellulose) (HPC)) was 108 % of control, the T/C (dose: 120.0 mg/kg/injection, schedule: Q01DX005 (ip), vehicle: Klucel (hydroxypropylcellulose) (HPC)) was 108 % of control and the T/C (dose: 240.0 mg/kg/injection, schedule: Q01DX005 (ip), vehicle: Klucel (hydroxypropylcellulose) (HPC)) was 112 % of control.

`O=C1CC2C3C1N(c1ccc(Cl)cc1)C1(Nc4ccc(Cl)cc4)C(=O)CC(C31)N2c1ccc(Cl)cc1` (stereo not drawn) was tested, and the T/C (dose: 7.5 mg/kg/injection, schedule: Q01DX005 (ip), vehicle: Klucel (hydroxypropylcellulose) (HPC)) was 104 % of control, the T/C (dose: 15.0 mg/kg/injection, schedule: Q01DX005 (ip), vehicle: Klucel (hydroxypropylcellulose) (HPC)) was 101 % of control and the T/C (dose: 30.0 mg/kg/injection, schedule: Q01DX005 (ip), vehicle: Klucel (hydroxypropylcellulose) (HPC)) was 92 % of control.

`OC1CCN(c2c3ccccc3nc3ccccc23)CC1` was tested, and the T/C (dose: 12.5 mg/kg/injection, schedule: Q04DX002 (ip), vehicle: saline) was 105 % of control and the T/C (dose: 25.0 mg/kg/injection, schedule: Q04DX002 (ip), vehicle: saline) was 113 % of control.

With `C=C1C(=O)OC2/C=C(\C)CC/C=C(\C(=O)O)CC/C=C(/C)CCC12` (stereo not drawn) the T/C (dose: 5.0 mg/kg/injection, schedule: Q01DX005 (ip), vehicle: Klucel (hydroxypropylcellulose) (HPC)) was 100 % of control, the T/C (dose: 10.0 mg/kg/injection, schedule: Q01DX005 (ip), vehicle: Klucel (hydroxypropylcellulose) (HPC)) was 117 % of control and the T/C (dose: 20.0 mg/kg/injection, schedule: Q01DX005 (ip), vehicle: Klucel (hydroxypropylcellulose) (HPC)) was 118 % of control. For the same compound, the T/C (dose: 40.0 mg/kg/injection, schedule: Q01DX005 (ip), vehicle: Klucel (hydroxypropylcellulose) (HPC)) was 115 % of control and the T/C (dose: 80.0 mg/kg/injection, schedule: Q01DX005 (ip), vehicle: Klucel (hydroxypropylcellulose) (HPC)) was 115 % of control.

`O=c1[nH]c(=O)n(C2OC(CO)C(O)C2O)cc1O` (stereo not drawn) was tested, and the T/C (dose: 60.0 mg/kg/injection, schedule: Q01DX005 (ip), vehicle: saline) was 102 % of control, the T/C (dose: 120.0 mg/kg/injection, schedule: Q01DX005 (ip), vehicle: saline) was 101 % of control and the T/C (dose: 240.0 mg/kg/injection, schedule: Q01DX005 (ip), vehicle: saline) was 103 % of control.

`N=C(N)SCC(=O)n1ccc(=O)n(C(=O)CSC(=N)N)c1=O` was tested, and the T/C (dose: 100.0 mg/kg/injection, schedule: Q04DX002 (ip), vehicle: saline) was 100 % of control, the T/C (dose: 200.0 mg/kg/injection, schedule: Q04DX002 (ip), vehicle: saline) was 100 % of control and the T/C (dose: 400.0 mg/kg/injection, schedule: Q04DX002 (ip), vehicle: saline) was 96 % of control.

`NNC(=S)N/N=C/c1ccccn1` was tested, and the T/C (dose: 0.78 mg/kg/injection, schedule: Q01DX009 (ip), vehicle: saline) was 99 % of control, the T/C (dose: 1.56 mg/kg/injection, schedule: Q01DX009 (ip), vehicle: saline) was 102 % of control and 117 % of control and the T/C (dose: 1.56 mg/kg/injection, schedule: Q01DX009 (ip), vehicle: suspension in saline) was 107 % of control. The T/C (dose: 3.12 mg/kg/injection, schedule: Q01DX009 (ip), vehicle: suspension in saline) was 109 % of control, the T/C (dose: 6.25 mg/kg/injection, schedule: Q01DX009 (ip), vehicle: saline with Tween-80) was 100 % of control and the T/C (dose: 6.25 mg/kg/injection, schedule: Q01DX009 (ip), vehicle: saline) was 110 % of control. The T/C (dose: 6.25 mg/kg/injection, schedule: Q01DX009 (ip), vehicle: suspension in saline) was 111 % of control, the T/C (dose: 12.5 mg/kg/injection, schedule: Q01DX009 (ip), vehicle: saline) was 150 % of control and the T/C (dose: 16.5 mg/kg/injection, schedule: Q01DX009 (ip), vehicle: saline sonified) was 122 % of control. For the same compound, the T/C (dose: 25.0 mg/kg/injection, schedule: Q01DX009 (ip), vehicle: saline with Tween-80) was 150 % of control and the T/C (dose: 25.0 mg/kg/injection, schedule: Q01DX009 (ip), vehicle: saline) was 154 % of control and 170 % of control.

In the case of `CC1C(O)CC23COC(=O)C2=CCCC3C1(C)CCC1COC(=O)C1` (stereo not drawn), the T/C (dose: 9.38 mg/kg/injection, schedule: Q01DX005 (ip), vehicle: Klucel (hydroxypropylcellulose) (HPC)) is reported as 101 % of control, the T/C (dose: 18.75 mg/kg/injection, schedule: Q01DX005 (ip), vehicle: Klucel (hydroxypropylcellulose) (HPC)) is reported as 90 % of control and the T/C (dose: 37.5 mg/kg/injection, schedule: Q01DX005 (ip), vehicle: Klucel (hydroxypropylcellulose) (HPC)) is reported as 105 % of control. For the same compound, the T/C (dose: 75.0 mg/kg/injection, schedule: Q01DX005 (ip), vehicle: Klucel (hydroxypropylcellulose) (HPC)) was 117 % of control.

In the case of `CC(SC(C)C(=O)N/N=C/c1c[nH]c2ccccc12)C(=O)N/N=C\c1c[nH]c2ccccc12` (stereo not drawn), the T/C [5] is reported as 92 % of control, the T/C (dose: 100.0 mg/kg/injection, schedule: Q01DX005 (ip), vehicle: saline with Tween-80) is reported as 93 % of control and the T/C (dose: 200.0 mg/kg/injection, schedule: Q01DX005 (ip), vehicle: saline with Tween-80) is reported as 93 % of control.

`N#Cc1nc2c(nc1N)CCCCCCCCCC2` was tested, and the T/C (dose: 25.0 mg/kg/injection, schedule: Q01DX009 (ip), vehicle: Klucel (hydroxypropylcellulose) (HPC)) was 94 % of control, the T/C (dose: 50.0 mg/kg/injection, schedule: Q01DX009 (ip), vehicle: Klucel (hydroxypropylcellulose) (HPC)) was 94 % of control and the T/C (dose: 100.0 mg/kg/injection, schedule: Q01DX009 (ip), vehicle: Klucel (hydroxypropylcellulose) (HPC)) was 92 % of control. The T/C (dose: 200.0 mg/kg/injection, schedule: Q01DX009 (ip), vehicle: Klucel (hydroxypropylcellulose) (HPC)) was 100 % of control.

`COC1(OC)CCC(=O)N(Cc2ccccc2)c2cc(C)c(N(Cc3ccccc3)S(=O)(=O)c3ccc(C)cc3)cc2C1C` (stereo not drawn) was tested, and the T/C [3] was 95 % of control, the T/C [4] was 90 % of control and the T/C [5] was 86 % of control and 95 % of control.

In the case of `O=C(N/C(=C\c1cccc([N+](=O)[O-])c1)c1nc2ccccc2s1)c1ccccc1`, the T/C (dose: 60.0 mg/kg/injection, schedule: Q01DX005 (ip), vehicle: saline with Tween-80) is reported as 107 % of control, the T/C (dose: 120.0 mg/kg/injection, schedule: Q01DX005 (ip), vehicle: saline with Tween-80) is reported as 106 % of control and the T/C (dose: 240.0 mg/kg/injection, schedule: Q01DX005 (ip), vehicle: saline with Tween-80) is reported as 110 % of control.

In the case of `c1cc2n3c1CCc1ccc(n1CC3)CC2`, the T/C (dose: 8.0 mg/kg/injection, schedule: Q01DX009 (ip), vehicle: saline with Tween-80) is reported as 100 % of control, the T/C (dose: 16.0 mg/kg/injection, schedule: Q01DX009 (ip), vehicle: saline with Tween-80) is reported as 100 % of control and the T/C (dose: 32.0 mg/kg/injection, schedule: Q01DX009 (ip), vehicle: saline with Tween-80) is reported as 100 % of control.

In the case of `COc1ccc2ncc(COC(=O)Nc3ccccc3)c(COC(=O)Nc3ccccc3)c2c1`, the T/C (dose: 12.5 mg/kg/injection, schedule: Q01DX005 (ip), vehicle: Klucel (hydroxypropylcellulose) (HPC)) is reported as 102 % of control and 106 % of control, the T/C (dose: 25.0 mg/kg/injection, schedule: Q01DX005 (ip), vehicle: Klucel (hydroxypropylcellulose) (HPC)) is reported as 100 % of control and 94 % of control and the T/C (dose: 50.0 mg/kg/injection, schedule: Q01DX005 (ip), vehicle: Klucel (hydroxypropylcellulose) (HPC)) is reported as 100 % of control and 95 % of control and 97 % of control.

In the case of `Cc1c2oc3c(C)ccc(C(=O)NC(C(=O)NC(C(=O)NN)C(C)C)C(C)O)c3nc-2c(C(=O)NC(C(=O)NC(C(=O)NN)C(C)C)C(C)O)c(N)c1=O` (stereo not drawn), the T/C (dose: 0.05 mg/kg/injection, schedule: Q01DX009 (ip), vehicle: water) is reported as 106 % of control, the T/C (dose: 0.1 mg/kg/injection, schedule: Q01DX009 (ip), vehicle: water) is reported as 107 % of control and the T/C (dose: 0.2 mg/kg/injection, schedule: Q01DX009 (ip), vehicle: water) is reported as 97 % of control. For the same compound, the T/C (dose: 0.4 mg/kg/injection, schedule: Q01DX009 (ip), vehicle: water) was 101 % of control, the T/C (dose: 0.8 mg/kg/injection, schedule: Q01DX009 (ip), vehicle: water) was 101 % of control and the T/C (dose: 1.6 mg/kg/injection, schedule: Q01DX009 (ip), vehicle: water) was 108 % of control and 110 % of control. For the same compound, the T/C (dose: 3.2 mg/kg/injection, schedule: Q01DX009 (ip), vehicle: water) was 99 % of control, the T/C (dose: 6.4 mg/kg/injection, schedule: Q01DX009 (ip), vehicle: water) was 99 % of control and the T/C (dose: 12.8 mg/kg/injection, schedule: Q01DX009 (ip), vehicle: water) was 97 % of control.
